Experimental data as given in patent US5698529A, “Chemotherapeutic compositions” (Supratek Pharma, Inc., priority 1996, dated 1997).
Converted amounts (≈) assume the structure as drawn. Where two headings read alike, the source gives them in different places.

How the values were obtained:
[1] = system: SKVLB cells; test: cells; assay type: cell-based; details: Homo sapiens
Source text: (§1) The antineoplastic agent vinblastine is incorporated into the block copolymer mixture described in Example 3.
(§2) The antineoplastic agent mitomycin C is incorporated into the block copolymer mixture described in Example 3.
(§3) The antineoplastic agent methotrexate is incorporated into the block copolymer mixture described in Example 3.
(§4) The antineoplastic agent daunorubicin is incorporated into the block copolymer mixture described in Example 3.

[2] = system: SKVO3 cells; test: cells; assay type: cell-based; details: Homo sapiens
Source text: as §1, §2, §3, §4

[3] = SKVO3, drug-sensitive, read-out: IC50

| SMILES | IC50 [1] [µg/mL] | IC50 [2, 3] [µg/mL] | IC50 [2] [µg/mL] |
| --- | --- | --- | --- |
| CC[C@]1(O)C[C@@H]2CN(CCc3c([nH]c4ccccc34)[C@@](C(=O)OC)(c3cc4c(cc3OC)N(C)[C@H]3[C@@](O)(C(=O)OC)[C@H](OC(C)=O)[C@]5(CC)C=CCN6CC[C@]43[C@@H]65)C2)C1 [free vinblastine, vinblastine] | 0.615 (≈ 0.758 µM) | 0.095 (≈ 0.117 µM) |  |
| CN(Cc1cnc2nc(N)nc(N)c2n1)c1ccc(C(=O)N[C@@H](CCC(=O)O)C(=O)O)cc1 [free methotrexate, methotrexate] |  | 1.09 (≈ 2.4 µM) |  |
| CO[C@@]12[C@H](COC(N)=O)C3=C(C(=O)C(C)=C(N)C3=O)N1C[C@@H]1N[C@@H]12 [free mitomycin, mitomycin C] | 1.12 (≈ 3.35 µM) |  | 0.32 (≈ 0.957 µM) |
